Among the data in PubChem BioAssay (NCI) are TGI and GI50 values, retold here.

Usually TGI stands for the concentration giving total growth inhibition. A low value points to more potent growth arrest. The term GI50 denotes the concentration at which growth is held to half of that of the control.

Some test systems named below: UO-31 renal; HCT-116 colon; CAKI-1 renal; KM12 colon; OVCAR-4 ovarian; OVCAR-5 ovarian; SNB-75 CNS; SW-620 colon; RXF 393 renal; HCC-2998 colon.
Common to all, as to test: DTP human tumour cell line panel, 48 h

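Assay format: 96-well plates, 48-hour exposure. Abbreviation: GI50, concentration required for 50% inhibition of growth. TGI denotes the concentration required for complete inhibition of growth.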

With `CC1=C(C)[C@@]2(C)O[C@@]2(C)O[C@@]2(C)O[C@@]12C`, the TGI in the assay on UO-31 renal, in the assay with HCT-116 colon, in the assay with CAKI-1 renal, in the assay with KM12 colon, with OVCAR-4 ovarian and with OVCAR-5 ovarian was over 100 µM each time. The same molecule showed a TGI in the assay with SNB-75 CNS of over 100 µM.
Take `O=C([O-])CC(=O)[O-].O=C([O-])CC(=O)[O-].[K+].[Pd+2]`: the GI50 in the assay with SW-620 colon, in the assay on UO-31 renal, in the assay on HCT-116 colon, with RXF 393 renal, in the assay with HCC-2998 colon and with CAKI-1 renal was over 100 µM each time. For the same molecule, the GI50 in the assay with OVCAR-4 ovarian, in the assay on OVCAR-5 ovarian and in the assay with SNB-75 CNS was over 100 µM throughout. Moreover, the TGI in the assay on SW-620 colon, with UO-31 renal, in the assay with HCT-116 colon, with RXF 393 renal, in the assay with HCC-2998 colon and in the assay with CAKI-1 renal was over 100 µM throughout. Also, the TGI in the assay on OVCAR-4 ovarian, with OVCAR-5 ovarian and in the assay with SNB-75 CNS was over 100 µM each time.
Take `O=C(Nc1ccc(C2=NCCN2)cc1)c1cncc(C(=O)Nc2ccc(C3=NCCN3)cc2)c1`: the TGI in the assay with SW-620 colon, with UO-31 renal, with HCT-116 colon, in the assay with RXF 393 renal, with HCC-2998 colon and with CAKI-1 renal was over 100 µM in each case. Besides, the TGI was over 100 µM in the assay on KM12 colon, over 100 µM in the assay with OVCAR-4 ovarian, over 100 µM in the assay with OVCAR-5 ovarian and over 31.6 µM in the assay on SNB-75 CNS.
As for `CCOC(=O)C(NC(C)=O)(Nc1ccc(F)cc1)C(F)(F)F` (stereo not given), the TGI with SW-620 colon, with UO-31 renal, in the assay with HCT-116 colon, in the assay with RXF 393 renal, in the assay on HCC-2998 colon and in the assay with CAKI-1 renal was over 100 µM throughout. The TGI in the assay on KM12 colon, with OVCAR-4 ovarian, in the assay with OVCAR-5 ovarian and in the assay with SNB-75 CNS was over 100 µM throughout.
